Test results taken from US6348570B1, “Chromophore containing compounds and their use in determining interleukin-1β convertase activity” (Merck & Co., Inc., priority 1991, dated 2002).
Starred links: 1 amine or outer side, 2 acyl side, 3 side chain; linkers in the order of their positions; H or OH if unused. Non-standard residues stand in square brackets, D forms with d. Residues, ends and D or L forms follow the SMILES beside them. No end group written: not given here. *: point of attachment. 3‑amino‑4‑oxobutanoic acid = aspartic acid with its alpha-carboxyl as an aldehyde, O=C[C@H](CC(=O)[*:3])N[*:1]; AMC = Cc1cc(=O)oc2cc(N*)ccc12

Tests used:
[1] = biological target: T1, Interleukin-1β convertase (ICE), DEAE-purified THP-1 cell lysate (Homo sapiens, UniProt P29466); type: biochemical; set-up: Activity of DEAE-purified THP-1 cell lysate; endogenous in cells; host or cells: THP-1 cells; cytosolic extract fractionated on a DEAE-5PW HPLC column; conditions: pH 7.5
T1 sequence (P29466 120-297 limits assumed): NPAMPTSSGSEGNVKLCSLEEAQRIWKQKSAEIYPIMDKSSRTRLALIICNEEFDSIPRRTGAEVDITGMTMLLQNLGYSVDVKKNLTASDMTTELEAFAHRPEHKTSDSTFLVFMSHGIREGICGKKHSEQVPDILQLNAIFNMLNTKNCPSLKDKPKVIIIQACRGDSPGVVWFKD
T1 sequence (P29466 317-404 limits assumed): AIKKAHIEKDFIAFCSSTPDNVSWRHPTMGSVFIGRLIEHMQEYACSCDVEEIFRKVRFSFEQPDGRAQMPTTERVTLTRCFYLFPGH
Procedure: [table] At 25° C., 5 μl of substrate 5 μl of enzyme and 5 μl of sample were added to 485 μl of Buffer as defined above. Liberation of AMC was monitored using a Gilford Fluoro IV Spectrofluorometer using an excitation wavelength of 380 nm and an emmission wavelength of 460 nm. 1 μM AMC=100% relative fluorescence.

[2] = biological target: T1, Interleukin-1β convertase (ICE), DEAE-purified THP-1 cell lysate; assay: Coupled fluorometric ICE assay with leucine aminopeptidase (LAPM); type: biochemical; set-up: Activity of DEAE-purified THP-1 cell lysate; endogenous in cells; host or cells: THP-1 cells; cytosolic extract fractionated on a DEAE-5PW HPLC column; conditions: 25° C.
Procedure: Coupled Assay: Interleukin 1β activity of Activity of DEAE-purified THP-1 cell lysate.
At 25° C., 5 μl of substrate 5 μl of LAPM, 5 μl of ICE were added to […] of buffer.
Reaction is monitored continuously in a Gilford Fluoro-IV Spectrofluorometer. excitation wavelength=380 nm emission wavelength=460 nm 1 uM AMC=100% relative fluoroescence

[3] = biological target: T2, Interleukin-1β convertase (ICE) (UniProt P29466 120-297; P29466 317-404, limits assumed); assay: cell-based or functional assay
T2 sequence (looked up) 1: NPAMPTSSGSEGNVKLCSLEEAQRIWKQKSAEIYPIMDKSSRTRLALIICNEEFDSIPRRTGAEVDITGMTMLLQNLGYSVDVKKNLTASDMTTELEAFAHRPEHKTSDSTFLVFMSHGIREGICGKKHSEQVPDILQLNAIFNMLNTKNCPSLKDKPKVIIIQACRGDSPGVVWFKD
T2 sequence (looked up) 2: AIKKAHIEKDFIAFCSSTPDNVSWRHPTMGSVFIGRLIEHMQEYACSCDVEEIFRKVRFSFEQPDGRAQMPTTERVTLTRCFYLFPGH

Question: For `CC(=O)N[C@@H](Cc1ccc(O)cc1)C(=O)N[C@H](C(=O)N[C@@H](C)C(=O)NC(C=O)CC(=O)O)C(C)C` (stereo partly drawn) [Compound Z, N-(N-acetyl-tyrosinyl-valinyl-alaninyl)-3-amino-4-oxo butanoic acid], which “rate constant for inhibition” value ([1]; 5 μl of 2 μM sample in 500 μl, 25° C.) is on record?
Answer: The value was 0.25 min⁻¹.

Question: What about the “half-life for the slow onset of inhibition” value [1] of the same molecule?
Answer: The value was 2.7 min.

Question: What about the type of inhibition ([1]; substrate Ac-Tyr-Val-Ala-Asp-AMC, 25° C.) of the same molecule?
Answer: The type of inhibition was “slow, tight-binding inhibitor”.

Question: How did the “velocity of the steady state reaction” value ([2]; 5 μl substrate, 5 μl LAPM, 5 μl ICE, pH 7.5) turn out when `CC(=O)N[C@@H](Cc1ccc(O)cc1)C(=O)N[C@H](C(=O)N[C@@H](C)C(=O)N[C@@H](CC(=O)O)C(=O)NCC(=O)Nc1ccc2c(C)cc(=O)oc2c1)C(C)C` [Ac-Tyr-Val-Ala-Asp-Gly-AMC, N-(N-Acetyl-tyrosinyl-valinyl-alaninyl-aspartyl-glycinyl)-7-amino-4-methylcoumarin] (Ac-YVADG-{AMC}) was run?
Answer: Its value is 0.05 uM AMC/min.

Question: And the “rate constant that describes the approach to steady state (lag phase)” value ([2]; determined by amount of coupling enzyme LAPM (5 μl of 12.5 units/ml))?
Answer: Its value is 0.44 ± 0.01 min⁻¹.

B1: compound Z (i.e. N-(N-acetyl-tyrosinyl-valinyl-alaninyl)-3-amino-4-oxo butanoic acid) (peptide)
peptide: Ac-YVA[3‑amino‑4‑oxobutanoic acid]
Question: For B1, which “half-life for the slow onset of inhibition” value [3] is on record?
Answer: The value was 2.7 min.
